Results reported in patent publication US12202835B2, “Substituted aromatic ring-linked dioxinoquinazolines and dioxinoquinolines as kinase inhibitors” (BEIJING SCITECH-MQ PHARMACEUTICALS LIMITED, priority 2018, dated 2025).

Tests used:
Ba/F3 LMNA-NTRK1 cells = test: Assay for inhibiting the proliferation of Ba/F3 LMNA-NTRK1 cells (CCK-8); format: cell-based; settings: Mus musculus, BaF3
Protocol: In particular, the method of the assay of small molecular compounds for inhibiting cell proliferation is as follows: • 1. Cells cultured to a logarithmic growth phase (adherent cells need to be digested with trypsin and neutralized) were taken, pipetted evenly, transferred to a 15 mL centrifuge tube, and centrifuged at 1000 rpm at room temperature for 4 minutes; • 2. The supernatant was discarded; 5 mL of complete medium was added and pipetted evenly; 10 μL of cell suspension was taken out, mixed well with 10 μL of 0.4% trypan blue, and counted under a cell counter; the proportion of living cells was ensured to be above 90%; • 3. 80 μL of cell suspension per well was seeded into a 96-well plate according to the conditions shown in the attached table, and cultured overnight; in the outer 36 wells of the 96-well plate, no cells were added but only sterile water was added; only the inner 60 wells were used for cell assay and control; • 4. […] 20 μL of the corresponding compounds with different concentration gradients were added to each well of assay wells of the 96-well plate; 20 μL of complete medium was added to positive and negative control wells and shaken well; and the final concentration of DMSO in each well was 0.25%; • 6. After 72 hours of incubation, 10 μL of CCK-8 reagent was added to each well and further incubated at 37° C. for 1-2 hours; and the OD value was read at 450 nm; • 7. Cell survival rate (%)=[(As−Ab)/(Ac−Ab)]*100% • As: Assay well (medium containing cells, CCK-8, compound), • Ac: Control well (medium containing cells, CCK-8), • Ab: Blank well (CCK-8, medium without cell and compound), • 8. The values were imported into Graphpad Prism 5 software for IC50 calculation.

Ba/F3-AXL cells = test: Assay for inhibiting the proliferation of Ba/F3-AXL cells (CCK-8); format: cell-based; settings: 72 hours of incubation, medium with 100 ng/mL hGas6, CCK-8
Protocol: The values were then imported into Graphpad Prism 5 software for curve fitting, and IC50 was calculated.

EBC1 cells = test: Assay for inhibiting the proliferation of EBC1 cells (CCK-8); format: cell-based; settings: Homo sapiens, EBC-1
Protocol: (§1) In particular, the method of the assay of small molecular compounds for inhibiting cell proliferation is as follows: • 1. Cells cultured to a logarithmic growth phase (adherent cells need to be digested with trypsin and neutralized) were taken, pipetted evenly, transferred to a 15 mL centrifuge tube, and centrifuged at 1000 rpm at room temperature for 4 minutes; • 2. The supernatant was discarded; 5 mL of complete medium was added and pipetted evenly; 10 μL of cell suspension was taken out, mixed well with 10 μL of 0.4% trypan blue, and counted under a cell counter; the proportion of living cells was ensured to be above 90%; • 3. 80 μL of cell suspension per well was seeded into a 96-well plate according to the conditions shown in the attached table, and cultured overnight; in the outer 36 wells of the 96-well plate, no cells were added but only sterile water was added; only the inner 60 wells were used for cell assay and control; • 4. 5×compound dilution: the compounds were serially diluted 3-fold to obtain a total of 9 concentrations; 80-fold overall dilution was completed with complete medium, the resulting concentration was 5 times the final drug concentration, and DMSO concentration was 1.25%; • 5. 20 μL of the corresponding compounds with different concentration gradients were added to each well of assay wells of the 96-well plate; 20 μL of complete medium was added to positive and negative control wells and shaken well; and the final concentration of DMSO in each well was 0.25%; • 6. After 72 hours of incubation, 10 μL of CCK-8 reagent was added to each well and further incubated at 37° C. for 1-2 hours; and the OD value was read at 450 nm; • 7. Cell survival rate (%)=[(As−Ab)/(Ac−Ab)]*100% • As: Assay well (medium containing cells, CCK-8, compound), • Ac: Control well (medium containing cells, CCK-8), • Ab: Blank well (CCK-8, medium without cell and compound), • 8. The values were imported into Graphpad Prism 5 software for IC50 calculation.

MHCC97H cells = test: Assay for inhibiting the proliferation of MHCC97H cells (CCK-8); format: cell-based; settings: Homo sapiens
Protocol: as §1

TRKA kinase = TRKA kinase (Homo sapiens (Human), UniProt P04629); test: Assay of small molecular compounds for inhibiting the activity of TRKA kinase (LANCE TR-FRET); format: biochemical
Summary of the method: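 TRKA (supplied as 2 nM 2× solution) was pre-reacted with compounds for 5 min at room temperature before a 4× ULight-TK peptide/ATP mix (400 nM/40 μM) started the 60-min dark reaction at 1% DMSO. After stop and 60-min detection, TR-FRET was read.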

[1] = system: Ba/F3 LMNA-NTRK1-G595R cells; test: Assay for inhibiting the proliferation of Ba/F3 LMNA-NTRK1-G595R cells (CCK-8); format: cell-based; settings: Mus musculus, BaF3
Protocol: as §1

c-MET kinase = c-MET kinase (Homo sapiens (Human), UniProt P08581); test: Assay of small molecular compounds for inhibiting the activity of c-MET kinase (LANCE TR-FRET); format: biochemical; settings: read-out: CMET IC50
Summary of the method: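 Eleven final concentrations from 2500 nM down to 0.042 nM, in 4% DMSO, were tested against human c-MET (2× stock 2 nM), with compound and enzyme premixed for 5 min. The phosphorylation reaction used 4× stock of 400 nM ULight-JAK-1 peptide and 40 μM ATP for 60 min at room temperature, then stop and detection steps. TR-FRET percent inhibition against positive and negative controls gave the IC50.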

TRKA kinase, sequence (P04629 33-796): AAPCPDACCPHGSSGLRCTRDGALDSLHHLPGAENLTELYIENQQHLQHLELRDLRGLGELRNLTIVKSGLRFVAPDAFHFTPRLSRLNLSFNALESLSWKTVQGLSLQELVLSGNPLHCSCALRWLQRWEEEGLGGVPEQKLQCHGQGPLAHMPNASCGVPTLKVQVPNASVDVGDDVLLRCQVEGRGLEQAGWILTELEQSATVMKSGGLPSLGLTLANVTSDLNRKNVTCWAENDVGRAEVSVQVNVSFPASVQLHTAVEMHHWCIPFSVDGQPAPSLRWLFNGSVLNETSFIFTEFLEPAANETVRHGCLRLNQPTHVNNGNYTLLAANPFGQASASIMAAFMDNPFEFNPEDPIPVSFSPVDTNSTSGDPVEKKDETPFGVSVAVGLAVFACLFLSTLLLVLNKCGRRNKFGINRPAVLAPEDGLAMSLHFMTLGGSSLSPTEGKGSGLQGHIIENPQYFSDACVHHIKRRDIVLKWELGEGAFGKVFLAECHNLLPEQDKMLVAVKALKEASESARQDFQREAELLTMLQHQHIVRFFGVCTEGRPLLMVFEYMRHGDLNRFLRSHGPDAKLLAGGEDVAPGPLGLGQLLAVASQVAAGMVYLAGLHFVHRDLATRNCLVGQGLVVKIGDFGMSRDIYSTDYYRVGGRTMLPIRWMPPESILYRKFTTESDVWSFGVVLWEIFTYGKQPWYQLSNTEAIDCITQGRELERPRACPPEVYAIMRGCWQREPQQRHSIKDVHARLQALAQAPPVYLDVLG
c-MET kinase, sequence (P08581 25-1390): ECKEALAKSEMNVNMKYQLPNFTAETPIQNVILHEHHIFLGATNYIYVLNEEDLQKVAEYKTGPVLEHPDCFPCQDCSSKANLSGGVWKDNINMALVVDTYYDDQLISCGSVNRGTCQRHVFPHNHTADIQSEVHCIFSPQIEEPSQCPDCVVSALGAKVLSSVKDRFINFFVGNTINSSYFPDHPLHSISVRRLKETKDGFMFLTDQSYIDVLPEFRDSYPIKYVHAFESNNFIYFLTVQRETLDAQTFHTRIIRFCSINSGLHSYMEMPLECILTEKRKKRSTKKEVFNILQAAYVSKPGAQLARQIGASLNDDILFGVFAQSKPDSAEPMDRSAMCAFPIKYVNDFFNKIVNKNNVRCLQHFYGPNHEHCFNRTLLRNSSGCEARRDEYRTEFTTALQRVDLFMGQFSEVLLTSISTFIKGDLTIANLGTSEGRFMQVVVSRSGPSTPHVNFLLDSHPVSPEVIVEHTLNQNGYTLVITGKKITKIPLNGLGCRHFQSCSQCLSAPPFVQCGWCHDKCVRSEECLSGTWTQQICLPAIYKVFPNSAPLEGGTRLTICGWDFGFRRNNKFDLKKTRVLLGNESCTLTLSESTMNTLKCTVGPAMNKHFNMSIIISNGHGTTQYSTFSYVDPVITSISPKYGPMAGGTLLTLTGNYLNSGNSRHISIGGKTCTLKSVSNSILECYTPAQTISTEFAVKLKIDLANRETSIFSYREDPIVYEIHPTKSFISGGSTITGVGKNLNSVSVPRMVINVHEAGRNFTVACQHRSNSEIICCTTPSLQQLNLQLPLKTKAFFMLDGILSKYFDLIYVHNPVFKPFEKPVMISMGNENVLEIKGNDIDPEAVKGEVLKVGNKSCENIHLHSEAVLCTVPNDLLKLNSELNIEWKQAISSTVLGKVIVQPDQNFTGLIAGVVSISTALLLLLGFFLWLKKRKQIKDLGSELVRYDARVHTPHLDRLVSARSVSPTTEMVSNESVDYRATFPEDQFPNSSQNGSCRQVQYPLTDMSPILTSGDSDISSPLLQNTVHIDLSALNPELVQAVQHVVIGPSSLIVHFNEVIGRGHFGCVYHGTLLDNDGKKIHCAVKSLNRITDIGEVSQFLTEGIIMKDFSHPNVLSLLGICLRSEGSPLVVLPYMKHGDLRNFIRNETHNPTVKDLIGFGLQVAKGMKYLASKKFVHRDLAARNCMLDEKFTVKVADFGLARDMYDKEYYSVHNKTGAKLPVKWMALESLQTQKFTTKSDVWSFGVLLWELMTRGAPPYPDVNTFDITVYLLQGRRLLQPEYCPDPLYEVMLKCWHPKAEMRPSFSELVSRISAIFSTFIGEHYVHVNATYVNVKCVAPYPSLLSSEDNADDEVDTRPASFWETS

Compound | IC50 (Ba/F3 LMNA-NTRK1 cells) | IC50 (Ba/F3-AXL cells) | IC50 (TRKA kinase) | IC50 [1] | IC50 (c-MET kinase) | IC50 (EBC1 cells) | IC50 (MHCC97H cells)
O=C(Nc1ccc(Oc2ccnc3cc(OCCCN4CCOCC4)c4c(c23)OCCO4)c(F)c1)c1cccn(-c2ccc(F)cc2)c1=O [Example 20, N-(3-fluoro-4-((5-(3-morpholinopropoxy)-2,3-dihydro-[1,4]dioxino[2,3-f]quinolin-10-yl)oxy)phenyl)-1-(4-fluorophenyl)-2-oxo-1,2-dihydropyridine-3-carboxamide] | < 50 nM | < 50 nM |  |  |  | ≤ 50 nM | ≤ 50 nM
CCOc1ccn(-c2ccc(F)cc2)c(=O)c1C(=O)Nc1ccc(Oc2ccnc3cc(OCCCCCCN(C)C)c4c(c23)OCCO4)c(F)c1 [Example 60, N-(4-((5-((6-dimethylamino)hexyloxy)-2,3-dihydro-[1,4]dioxino[2,3-f]quinolin-10-yl)oxy)-3-fluorophenyl)-4-ethoxy-1-(4-fluorophenyl)-2-oxo-1,2-dihydropyridine-3-carboxamide] | < 50 nM | < 50 nM |  |  |  | ≤ 50 nM | 50 to 200 nM
CCOc1ccn(-c2ccc(F)cc2)c(=O)c1C(=O)Nc1ccc(Oc2ccnc3cc(OCCCN(C)C)c4c(c23)OCCO4)c(F)c1 [Example 61, N-(4-((5-((3-dimethylamino)propoxy)-2,3-dihydro-[1,4]dioxino[2,3-f]quinolin-10-yl)oxy)-3-fluorophenyl)-4-ethoxy-1-(4-fluorophenyl)-2-oxo-1,2-dihydropyridine-3-carboxamide] | < 50 nM | < 50 nM |  |  |  | ≤ 50 nM | ≤ 50 nM
CCn1cc(C(=O)Nc2ccc(Oc3ccnc4cc(OC)c5c(c34)OCCO5)cc2F)c(=O)n(-c2ccc(F)cc2)c1=O [Example 154, N-(2-fluoro-4-((5-methoxy-2,3-dihydro-[1,4]dioxino[2,3-f]quinolin-10-yl)oxy)phenyl)-3-(4-fluorophenyl)-1-ethyl-2,4-dioxo-1,2,3,4-tetrahydropyrimidine-5-carboxamide] | < 50 nM |  | < 50 nM | 50 to 200 nM | ≤ 50 nM |  | 
Cn1cc(C(=O)Nc2ccc(Oc3ccnc4ccc5c(c34)OCCO5)cc2)c(=O)n(-c2ccc(F)cc2)c1=O [Example 158, N-(4-((2,3-dihydro-[1,4]dioxino[2,3-f]quinolin-10-yl)oxy)phenyl)-3-(4-fluorophenyl)-1-methyl-2,4-dioxo-1,2,3,4-tetrahydropyrimidine-5-carboxamide] | 200 to 1000 nM |  | 50 to 500 nM | > 1000 nM |  |  | 
CCn1cc(C(=O)Nc2ccc(Oc3ccnc4ccc5c(c34)OCCO5)cc2)c(=O)n(-c2ccc(F)cc2)c1=O [Example 159, N-(4-((2,3-dihydro-[1,4]dioxino[2,3-f]quinolin-10-yl)oxy)phenyl)-3-(4-fluorophenyl)-1-ethyl-2,4-dioxo-1,2,3,4-tetrahydropyrimidine-5-carboxamide] | 200 to 1000 nM |  | 50 to 500 nM | > 1000 nM |  |  | 

Continued, in another order:

IC50 (Ba/F3 LMNA-NTRK1 cells) | IC50 (Ba/F3-AXL cells) | IC50 (TRKA kinase) | IC50 [1] | IC50 (c-MET kinase) | Compound | IC50 (EBC1 cells) | IC50 (MHCC97H cells)
< 50 nM |  | < 50 nM | 50 to 200 nM |  | Cc1cc(Oc2ccnc3ccc4c(c23)OCCO4)c(F)cc1NC(=O)c1cn(C)c(=O)n(-c2ccc(F)cc2)c1=O [Example 175, N-(4-((2,3-dihydro-[1,4]dioxino[2,3-f]quinolin-10-yl)oxy)-5-fluoro-2-methylphenyl)-3-(4-fluorophenyl)-1-methyl-2,4-dioxo-1,2,3,4-tetrahydropyrimidine-5-carboxamide] |  | 
< 50 nM |  | < 50 nM | ≤ 50 nM | ≤ 50 nM | CCn1cc(C(=O)Nc2cc(F)c(Oc3ccnc4cc(OC)c5c(c34)OCCO5)cc2C)c(=O)n(-c2ccc(F)cc2)c1=O [Example 178, N-(5-fluoro-4-((5-methoxy-2,3-dihydro-[1,4]dioxino[2,3-f]quinolin-10-yl)oxy)-2-methylphenyl)-3-(4-fluorophenyl)-1-ethyl-2,4-dioxo-1,2,3,4-tetrahydropyrimidine-5-carboxamide] |  | ≤ 50 nM
 |  | < 50 nM |  | ≤ 50 nM | CCc1cc(Oc2ccnc3cc(OCCOC)c4c(c23)OCCO4)c(F)cc1NC(=O)c1cn(C)c(=O)n(-c2ccc(F)cc2)c1=O [Example 181, N-(5-fluoro-4-((5-(2-methoxyethoxy)-2,3-dihydro-[1,4]dioxino[2,3-f]quinolin-10-yl)oxy)-2-ethylphenyl)-3-(4-fluorophenyl)-1-methyl-2,4-dioxo-1,2,3,4-tetrahydropyrimidine-5-carboxamide] |  | 50 to 200 nM
 |  | 50 to 500 nM |  | ≤ 50 nM | CCc1cc(Oc2ccnc3cc(OCCOC)c4c(c23)OCCO4)c(F)cc1NC(=O)c1cn(CC)c(=O)n(-c2ccc(F)cc2)c1=O [Example 182, N-(5-fluoro-4-((5-(2-methoxyethoxy)-2,3-dihydro-[1,4]dioxino[2,3-f]quinolin-10-yl)oxy)-2-ethylphenyl)-3-(4-fluorophenyl)-1-ethyl-2,4-dioxo-1,2,3,4-tetrahydropyrimidine-5-carboxamide] |  | ≤ 50 nM
 |  | 50 to 500 nM |  | 50 to 500 nM | COCCOc1cc2nccc(Oc3cc(C(C)C)c(NC(=O)c4cn(C)c(=O)n(-c5ccc(F)cc5)c4=O)cc3F)c2c2c1OCCO2 [Example 183, N-(5-fluoro-4-((5-(2-methoxyethoxy)-2,3-dihydro-[1,4]dioxino[2,3-f]quinolin-10-yl)oxy)-2-isopropylphenyl)-3-(4-fluorophenyl)-1-methyl-2,4-dioxo-1,2,3,4-tetrahydropyrimidine-5-carb oxamide] |  | > 1000 nM
 |  | 50 to 500 nM |  |  | CCn1cc(C(=O)Nc2cc(F)c(Oc3ccnc4cc(OCCOC)c5c(c34)OCCO5)cc2C(C)C)c(=O)n(-c2ccc(F)cc2)c1=O [Example 184, N-(5-fluoro-4-((5-(2-methoxyethoxy)-2,3-dihydro-[1,4]dioxino[2,3-f]quinolin-10-yl)oxy)-2-isopropylphenyl)-3-(4-fluorophenyl)-1-ethyl-2,4-dioxo-1,2,3,4-tetrahydropyrimidine-5-carboxamide] |  | > 1000 nM
